Among the data in patent publication US8703805B2 (Exelixis Patent Company LLC, priority 2005, dated 2014) are EC50 values, retold here.

This assay has as its system LXRα and/or LXRβ. Briefly: LXR/LXRE co-transfection assay (luciferase reporter, CV-1 cells). The assay is classed as cell-based, human. The settings on record: IC50 or EC50 for LXR (LXRα and/or LXRβ, not distinguished), tested as described in Example 109, CV-1 cells. A digest of the protocol:
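Transient co-transfection of CV-1 cells with full-length human LXRα or LXRβ plus RXRα expression plasmids and an LXREx1-Tk-luciferase reporter; compounds (10 μM screen, ≤1% DMSO) incubated 20 h at 37 °C. Luminescence read after lysis; EC50/IC50 from 8-point half-log curves, efficacy relative to a high control or DMSO.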

Take `CC(C)NC(=O)c1cccc(-c2ccc(-c3cc(C(C)(C)O)nn3-c3ccccc3Cl)cc2)c1` [Example 1292, 4′-[1-(2-chlorophenyl)-3-(1-hydroxy-1-methylethyl)-1H-pyrazol-5-yl]-N-(1-methylethyl)biphenyl-3-carboxamide]: the EC50 was in the range of 1 to 10 µM.
In the case of `CN(C)CCNC(=O)c1cccc(-c2ccc(-c3cc(C(C)(C)O)nn3-c3ccccc3Cl)cc2)c1` [Example 1293, 4′-[1-(2-chlorophenyl)-3-(1-hydroxy-methylethyl)-1H-pyrazol-5-yl]-N-[2-(dimethylamino)ethyl]biphenyl-3-carboxamide] it was 1 to 10 µM; in that of `CC(C)(O)c1nn(-c2ccccc2Cl)c(-c2ccc(-c3cccc(S(C)(=O)=O)c3)s2)c1Cl` [Example 1294, 2-[4-chloro-1-(2-chlorophenyl)-5-{5-[3-(methylsulfonyl)phenyl]-2-thienyl}-1H-pyrazol-3-yl]propan-2-ol], less than 1 µM.
In turn, `CC(C)NC(=O)Oc1cccc(-c2ccc(-c3cc(C(C)(C)O)nn3-c3ccccc3Cl)cc2)c1` [Example 1296, 4′-[1-(2-chlorophenyl)-3-(1-hydroxy-1-methylethyl)-1H-pyrazol-5-yl]biphenyl-3-yl (1-methylethyl)carbamate] showed an EC50 of 1 to 10 µM.
`CCOC(=O)COc1cccc(-c2ccc(-c3cc(C(C)(C)O)nn3-c3ccccc3Cl)cc2)c1` [Example 1297, ethyl ({4′-[1-(2-chlorophenyl)-3-(1-hydroxy-1-methylethyl)-1H-pyrazol-5-yl]biphenyl-3-yl}oxy)acetate] gave an EC50 of 1 to 10 µM.
The figure for `CCN(CC)C(=O)COc1cccc(-c2ccc(-c3cc(C(C)(C)O)nn3-c3ccccc3Cl)cc2)c1` [Example 1298, 2-({4′-[1-(2-chlorophenyl)-3-(1-hydroxy-1-methylethyl)-1H-pyrazol-5-yl]biphenyl-3-yl}oxy)-N,N-diethylacetamide] is 1 to 10 µM.
In the case of `CC(C)(O)c1cc(-c2ccc(-c3ccc(F)c(C(F)(F)F)c3)cc2)n(-c2ccccc2Cl)n1` [Example 1299, 2-{1-(2-chlorophenyl)-5-[4′-fluoro-3′-(trifluoromethyl)biphenyl-4-yl]-1H-pyrazol-3-yl}propan-2-ol] it was 1 to 10 µM.
The figure for `CC(C)(O)c1cc(-c2ccc(-c3cccc(S(N)(=O)=O)c3)cc2)n(-c2ccccc2Cl)n1` [Example 1300, 4′-[1-(2-chlorophenyl)-3-(1-hydroxy-1-methylethyl)-1H-pyrazol-5-yl]biphenyl-3-sulfonamide] is 1 to 10 µM; for `Cc1c(C(C)(C)O)nn(-c2ccccc2Cl)c1-c1ccc(-c2cccc(S(C)(=O)=O)c2)s1` [Example 1301, 2-[1-(2-chlorophenyl)-4-methyl-5-{5-[3-(methylsulfonyl)phenyl]-2-thienyl}-1H-pyrazol-3-yl]propan-2-ol] it is less than 1 µM.
In the case of `CCS(=O)(=O)c1cccc(-c2ccc(-c3cc(C(C)(C)C(=O)O)nn3-c3ccccc3Cl)s2)c1` [Example 1302, 2-[1-(2-chlorophenyl)-5-{5-[3-(ethylsulfonyl)phenyl]-2-thienyl}-1H-pyrazol-3-yl]-2-methylpropanoic acid], the EC50 was in the range of 1 to 10 µM.
Regarding `CC(C)(O)c1ccc(-c2ccc(-c3cc(C(F)(F)F)nn3-c3cc(Cl)ccc3Cl)s2)cc1S(C)(=O)=O` [Example 1304, 2-[4-{5-[1-(2,5-dichlorophenyl)-3-(trifluoromethyl)-1H-pyrazol-5-yl]-2-thienyl}-2-(methylsulfonyl)phenyl]propan-2-ol], the EC50 is less than 1 µM.
`CC(C)(O)c1cc(-c2ccc(-c3ccc(S(C)(=O)=O)cc3)cc2)n(-c2ccccc2Cl)n1` [Example 1305, 2-{1-(2-chlorophenyl)-5-[4′-(methylsulfonyl)biphenyl-4-yl]-1H-pyrazol-3-yl}propan-2-ol] gave an EC50 of 1 to 10 µM.
The figure for `CC(C)(O)c1cc(-c2ccc(-c3ccc(S(N)(=O)=O)cc3)cc2)n(-c2ccccc2Cl)n1` [Example 1306, 4′-[1-(2-chlorophenyl)-3-(1-hydroxy-1-methylethyl)-1H-pyrazol-5-yl]biphenyl-4-sulfonamide] is 1 to 10 µM.
In the case of `CC(C)(O)c1cccc(-c2ccc(-c3cc(C(C)(C)O)nn3-c3ccccc3Cl)cc2)c1` [Example 1307, 2-{1-(2-chlorophenyl)-5-[3′-(1-hydroxy-1-methylethyl)biphenyl-4-yl]-1H-pyrazol-3-yl}propan-2-ol] it was less than 1 µM; in that of `CC(C)(O)c1cc(-c2ccc(-c3cc(C(F)(F)F)nn3-c3cc(Cl)ccc3Cl)s2)cc(S(C)(=O)=O)c1` [Example 1308, 2-[3-{5-[1-(2,5-dichlorophenyl)-3-(trifluoromethyl)-1H-pyrazol-5-yl]-2-thienyl}-5-(methylsulfonyl)phenyl]propan-2-ol], less than 1 µM.
In the case of `CC(C)(O)c1cc(-c2ccc(-c3cccc(NS(C)(=O)=O)c3)cc2)n(-c2ccccc2Cl)n1` [Example 1309, N-{4′-[1-(2-chlorophenyl)-3-(1-hydroxy-1-methylethyl)-1H-pyrazol-5-yl]biphenyl-3-yl}methanesulfonamide] it was 1 to 10 µM; in that of `CC(C)(O)c1cc(-c2ccc(-c3cccc(NS(=O)(=O)C(F)(F)F)c3)cc2)n(-c2ccccc2Cl)n1` [Example 1310, N-{4′-[1-(2-chlorophenyl)-3-(1-hydroxy-1-methylethyl)-1H-pyrazol-5-yl]biphenyl-3-yl}-1,1,1-trifluoromethanesulfonamide], 1 to 10 µM.
As for `CC(=O)Nc1cccc(-c2ccc(-c3cc(C(C)(C)O)nn3-c3ccccc3Cl)cc2)c1` [Example 1311, N-{4′-[1-(2-chlorophenyl)-3-(1-hydroxy-1-methylethyl)-1H-pyrazol-5-yl]biphenyl-3-yl}acetamide], the EC50 lay within 1 to 10 µM.
The figure for `CS(=O)(=O)c1cccc(-c2ccc(-c3c(Br)c(C(F)(F)F)nn3-c3c(Cl)cccc3Cl)s2)c1` [Example 1313, 4-bromo-1-(2,6-dichlorophenyl)-5-{5-[3-(methylsulfonyl)phenyl]-2-thienyl}-3-(trifluoromethyl)-1H-pyrazole] is less than 1 µM; for `Cc1ccc(C)c(-n2nc(C(C)(C)O)cc2-c2ccc(-c3cccc(S(C)(=O)=O)c3)s2)c1` [Example 1314, 2-[1-(2,5-dimethylphenyl)-5-{5-[3-(methylsulfonyl)phenyl]-2-thienyl}-1H-pyrazol-3-yl]propan-2-ol] it is less than 1 µM.
In the case of `CCS(=O)(=O)c1cccc(-c2ccc(-c3cc(C(C)(C)O)nn3-c3ccccc3Cl)s2)c1` [Example 1316, 2-[1-(2-chlorophenyl)-5-{5-[3-(ethylsulfonyl)phenyl]-2-thienyl}-1H-pyrazol-3-yl]propan-2-ol] it was 1 to 10 µM; in that of `CC(C)(O)c1cc(-c2ccc(-c3cc(C(F)(F)F)nn3-c3c(Cl)cccc3Cl)s2)cc(S(C)(=O)=O)c1` [Example 1317, 2-[3-{5-[1-(2,6-dichlorophenyl)-3-(trifluoromethyl)-1H-pyrazol-5-yl]-2-thienyl}-5-(methylsulfonyl)phenyl]propan-2-ol], less than 1 µM.
In the case of `CC(C)(O)c1cc(-c2ccc(-c3cc(C(F)(F)F)nn3-c3ccccc3Cl)s2)cc(S(C)(=O)=O)c1` [Example 1318, 2-[3-{5-[1-(2-chlorophenyl)-3-(trifluoromethyl)-1H-pyrazol-5-yl]-2-thienyl}-5-(methylsulfonyl)phenyl]propan-2-ol] it was less than 1 µM.
